Measured values published in US8293768B2, “Organic compounds” (Novartis AG, priority 2006, dated 2012).

SMILES	melting point [°C]
Cc1nc(N2CCN(Cc3ccc(C(F)(F)F)cc3)C2=O)sc1C(=O)NCc1ccccc1 [Example 9.13, N-benzyl-4-methyl-2-(2-oxo-3-(4-(trifluoromethyl)benzyl)imidazolidin-1-yl)thiazole-5-carboxamide]	127 to 128
Cc1nc(N2CCN(CC3CC3)C2=O)sc1C(=O)NCc1ccccc1 [Example 9.14, N-benzyl-2-(3-(cyclopropylmethyl)-2-oxoimidazolidin-1-yl)-4-methylthiazole-5-carboxamide]	142 to 143
Cc1nc(N2CCN(CC3CC3)C2=O)sc1C(=O)NCc1ccc(F)cc1 [Example 9.15, 2-(3-(cyclopropylmethyl)-2-oxoimidazolidin-1-yl)-N-(4-fluorobenzyl)-4-methylthiazole-5-carboxamide]	146 to 147
Cc1nc(N2CCN(CCC3CC3)C2=O)sc1C(=O)NCc1ccccc1 [Example 9.17, N-benzyl-2-(3-(2-cyclopropylethyl)-2-oxoimidazolidin-1-yl)-4-methylthiazole-5-carboxamide]	137 to 138
Cc1nc(N2CCN(CCC3CC3)C2=O)sc1C(=O)NCc1ccc(F)cc1 [Example 9.18, 2-(3-(2-cyclopropylethyl)-2-oxoimidazolidin-1-yl)-N-(4-fluorobenzyl)-4-methylthiazole-5-carboxamide]	122 to 123
Cc1nc(N2CCN(Cc3ccc(F)cc3)C2=O)sc1C(=O)NCc1ccc(F)cc1 [Example 9.20, N-(4-fluorobenzyl)-2-(3-(4-fluorobenzyl)-2-oxoimidazolidin-1-yl)-4-methylthiazole-5-carboxamide]	177 to 178
Cc1nc(N2CCN(Cc3ccc(F)cc3)C2=O)sc1C(=O)NCc1ccccc1 [Example 9.21, N-benzyl-2-(3-(4-fluorobenzyl)-2-oxoimidazolidin-1-yl)-4-methylthiazole-5-carboxamide]	192 to 193
Cc1nc(N2CCN(Cc3ccc(OC(F)(F)F)cc3)C2=O)sc1C(=O)NCc1cccnc1 [Example 9.22, 4-methyl-2-(2-oxo-3-(4-(trifluoromethoxy)benzyl)imidazolidin-1-yl)-N-(pyridin-3-ylmethyl)thiazole-5-carboxamide]	165 to 166
Cc1nc(N2CCN(Cc3ccc(OC(F)(F)F)cc3)C2=O)sc1C(=O)NCc1ccccc1 [Example 9.23, N-benzyl-4-methyl-2-(2-oxo-3-(4-(trifluoromethoxy)benzyl)imidazolidin-1-yl)thiazole-5-carboxamide]	197 to 198
Cc1nc(N2CCN(Cc3ccc(OC(F)F)cc3)C2=O)sc1C(=O)NCc1cccnc1 [Example 9.24, 2-(3-(4-(difluoromethoxy)benzyl)-2-oxoimidazolidin-1-yl)-4-methyl-N-(pyridin-3-ylmethyl)thiazole-5-carboxamide]	166 to 167
Cc1nc(N2C[C@@H](Cc3ccccc3)NC2=O)sc1C(=O)NCc1ccccc1 [Example 9.25, (R)—N-benzyl-2-(4-benzyl-2-oxoimidazolidin-1-yl)-4-methylthiazole-5-carboxamide]	212 to 214
Cc1nc(N2CCN(CCC3CC3)C2=O)sc1C(=O)NCc1cccnc1 [Example 9.26, 2-(3-(2-cyclopropylethyl)-2-oxoimidazolidin-1-yl)-4-methyl-N-(pyridin-3-ylmethyl)thiazole-5-carboxamide]	146 to 147
Cc1nc(N2CCN(CCCc3ccccc3)C2=O)sc1C(=O)NCc1cccnc1 [Example 9.27, 4-methyl-2-(2-oxo-3-(3-phenylpropyl)imidazolidin-1-yl)-N-(pyridin-3-ylmethyl)thiazole-5-carboxamide]	127 to 128
Cc1nc(N2CCN(Cc3ccc(Cl)cc3)C2=O)sc1C(=O)NCc1cccnc1 [Example 9.28, 2-(3-(4-chlorobenzyl)-2-oxoimidazolidin-1-yl)-4-methyl-N-(pyridin-3-ylmethyl)thiazole-5-carboxamide]	178 to 179
Cc1nc(N2CCN(Cc3ccc(OC(F)(F)F)cc3)C2=O)sc1C(=O)NC[C@H](O)c1ccccc1 [Example 9.29, (R)—N-(2-hydroxy-2-phenylethyl)-4-methyl-2-(2-oxo-3-(4-(trifluoromethoxy)benzyl)imidazolidin-1-yl)thiazole-5-carboxamide]	149 to 151
Cc1nc(N2CCN(Cc3ccc(OC(F)(F)F)cc3)C2=O)sc1C(=O)Nc1ccccc1 [Example 9.30, 4-methyl-2-(2-oxo-3-(4-(trifluoromethoxy)benzyl)imidazolidin-1-yl)-N-phenylthiazole-5-carboxamide]	187 to 188
Cc1nc(N2CCN(Cc3ccc(OC(F)(F)F)cc3)C2=O)sc1C(=O)NCCc1ccccc1 [Example 9.31, 4-methyl-2-(2-oxo-3-(4-(trifluoromethoxy)benzyl)imidazolidin-1-yl)-N-phenethylthiazole-5-carboxamide]	184 to 185
Cc1nc(N2CCN(Cc3ccc(OC(F)(F)F)cc3)C2=O)sc1C(=O)NCCc1cccnc1 [Example 9.32, 4-methyl-2-(2-oxo-3-(4-(trifluoromethoxy)benzyl)imidazolidin-1-yl)-N-(2-(pyridin-3-yl)ethyl)thiazole-5-carboxamide]	172 to 173

SMILES	melting point [°C]
Cc1cnc(CNC(=O)c2sc(N3CCN(Cc4ccc(C(F)(F)F)cc4)C3=O)nc2C)cn1 [Example 9.33, 4-methyl-N-((5-methylpyrazin-2-yl)methyl)-2-(2-oxo-3-(4-(trifluoromethyl)benzyl)imidazolidin-1-yl)thiazole-5-carboxamide]	172 to 173
Cc1cnc(CNC(=O)c2sc(N3CCN(CC4CC4)C3=O)nc2C)cn1 [Example 9.34, 2-(3-(cyclopropylmethyl)-2-oxoimidazolidin-1-yl)-4-methyl-N-((5-methylpyrazin-2-yl)methyl)thiazole-5-carboxamide]	161 to 163
Cc1nc(N2CCN(CC3CCCCC3)C2=O)sc1C(=O)NCc1cccnc1 [Example 9.35, 2-(3-(cyclohexylmethyl)-2-oxoimidazolidin-1-yl)-4-methyl-N-(pyridin-3-ylmethyl)thiazole-5-carboxamide]	134 to 136
Cc1nc(N2CCN(CC3CCCCO3)C2=O)sc1C(=O)NCc1cccnc1 (centres unmarked) [Example 9.36, 4-methyl-2-(2-oxo-3-((tetrahydro-2H-pyran-2-yl)methyl)imidazolidin-1-yl)-N-(pyridin-3-ylmethyl)thiazole-5-carboxamide]	174 to 175
Cc1nc(N2CCN(CC3CCC3)C2=O)sc1C(=O)NCc1cccnc1 [Example 9.37, 2-(3-(cyclobutylmethyl)-2-oxoimidazolidin-1-yl)-4-methyl-N-(pyridin-3-ylmethyl)thiazole-5-carboxamide]	136 to 137
Cc1nc(N2CCN(CC3CCCC3)C2=O)sc1C(=O)NCc1cccnc1 [Example 9.38, 2-(3-(cyclopentylmethyl)-2-oxoimidazolidin-1-yl)-4-methyl-N-(pyridin-3-ylmethyl)thiazole-5-carboxamide]	142 to 143
CCCN1CCN(c2nc(C)c(C(=O)NCc3cccnc3)s2)C1=O [Example 9.40, 4-methyl-2-(2-oxo-3-propylimidazolidin-1-yl)-N-(pyridin-3-ylmethyl)thiazole-5-carboxamide]	109 to 111
CCCCCN1CCN(c2nc(C)c(C(=O)NCc3cccnc3)s2)C1=O [Example 9.42, 4-methyl-2-(2-oxo-3-pentylimidazolidin-1-yl)-N-(pyridin-3-ylmethyl)thiazole-5-carboxamide]	102 to 103
Cc1nc(N2CCN(Cc3cccc(C(F)(F)F)c3)C2=O)sc1C(=O)NCc1cccnc1 [Example 9.43, 4-methyl-2-(2-oxo-3-(3-(trifluoromethyl)benzyl)imidazolidin-1-yl)-N-(pyridin-3-ylmethyl)thiazole-5-carboxamide]	175 to 176
Cc1nc(N2CCN(Cc3ccc(F)cc3)C2=O)sc1C(=O)NCc1ccc(C(F)F)o1 [Example 9.44, N-((5-(difluoromethyl)furan-2-yl)methyl)-2-(3-(4-fluorobenzyl)-2-oxoimidazolidin-1-yl)-4-methylthiazole-5-carboxamide]	173 to 174
Cc1nc(N2CCN(Cc3ccc(C(F)F)o3)C2=O)sc1C(=O)NCc1cccnc1 [Example 9.45, 2-(3-((5-(difluoromethyl)furan-2-yl)methyl)-2-oxoimidazolidin-1-yl)-4-methyl-N-(pyridin-3-ylmethyl)thiazole-5-carboxamide]	142 to 143
CCOC(=O)c1sc(N2CCN(Cc3ccc(Cl)cc3)C2=O)nc1C [Example 10.3, ethyl 2-(3-(4-chlorobenzyl)-2-oxoimidazolidin-1-yl)-4-methylthiazole-5-carboxylate]	117 to 119
CCOC(=O)c1sc(N2C[C@@H](Cc3ccccc3)NC2=O)nc1C [Example 11, (R)-ethyl 2-(4-benzyl-2-oxoimidazolidin-1-yl)-4-methylthiazole-5-carboxylate]	102 to 103
Cc1cc(N2CCN(Cc3ccc(C(F)(F)F)cc3)C2=O)sc1C(=O)NCc1cccnc1 [Example 15, 3-methyl-5-(2-oxo-3-(4-(trifluoromethyl)benzyl)imidazolidin-1-yl)-N-(pyridin-3-ylmethyl)thiophene-2-carboxamide]	102 to 104
Cc1cc(N2CCN(Cc3ccccc3)C2=O)sc1C(=O)NCc1cccnc1 [Example 15.1, 5-(3-benzyl-2-oxoimidazolidin-1-yl)-3-methyl-N-(pyridin-3-ylmethyl)thiophene-2-carboxamide]	130 to 131
Cc1cc(N2CCN(Cc3ccc(F)cc3)C2=O)sc1C(=O)NCc1cccnc1 [Example 15.2, 5-(3-(4-fluorobenzyl)-2-oxoimidazolidin-1-yl)-3-methyl-N-(pyridin-3-ylmethyl)thiophene-2-carboxamide]	119 to 120
Cc1cc(N2CCN(CC3CC3)C2=O)sc1C(=O)NCc1cccnc1 [Example 15.3, 5-(3-(cyclopropylmethyl)-2-oxoimidazolidin-1-yl)-3-methyl-N-(pyridin-3-ylmethyl)thiophene-2-carboxamide]	157 to 159
